# In publication PMC6155332, “Antimalarials with Benzothiophene Moieties as Aminoquinoline Partners” (Molecules : A Journal of Synthetic Chemistry and Natural …, 2017):
# pIC50: −log10 of the molar value. “And” between values parts separate entries of the source, which are not always exact repeats. Equal values may be shown once. Read-outs that look alike come from different tables or passages of the source.
# Experiments:
# P. berghei (ANKA) = assay: Modified Thompson test, P. berghei mouse efficacy; format: in vivo, Plasmodium berghei; conditions: for Parasitemia D18: day 18; for Parasitemia D21: day 21; for Parasitemia D25: day 25; for Parasitemia D28: day 28; for Parasitemia D11: day 11; for Mean Survival Time (MST, Days) / Mice Alive on Day 31 / Mice Dead/Day Died: infected mice
# Description: In a separate host toxicity study, benzothiophene 25 was subjected to in vivo toxicity evaluation. […]
# The P. berghei (ANKA) mouse efficacy tests were conducted using a modified version of the Thompson test. Groups of five mice were inoculated intraperitoneally with erythrocytes infected with P. berghei on day 0. Drugs were suspended in 0.5% hydroxyethylcellulose-0.1% Tween 80 and administered orally once a day beginning on day 3 post infection. […] Cure was defined as survival (with no parasitemia) until day 31 post-treatment. Parasitemia was determined by thin-blood Giemsa-stained smears prepared from mice tail blood of each animal on days 0, 3, 6, 10, 13, 17, 20, 24, 27, and 31 (postinfection). The slides were examined under a light microscope.
# healthy mice = assay: Host toxicity study in healthy mice; format: in vivo; conditions: 160 mg/kg/day × 3 days; for Mice survived in host toxicity study: groups of 5 healthy mice; for Host toxicity (toxic / non-toxic): healthy mice, orally
# Description: In a separate host toxicity study, groups of five healthy mice were administered 160 mg/kg/day × 3 days of the investigational compounds and individually monitored for behavior and appearance two times a day for 31 days. No toxicity was defined as survival past day 31 with no overt clinical manifestations of toxicity (changes in behavior and appearance).
# β-hematin formation = assay: Inhibition of β-hematin formation (BHIA assay); format: biochemical; conditions: molar equivalent of compound, relative to hemin, that inhibits β-hematin formation by 50%
# Description: [33] The inhibition of β-hematin formation is expressed as the molar equivalent of compound, relative to hemin, that inhibits β-hematin formation by 50% and determined by slightly modified BHIA assay introduced by ParapiniS.BasilicoN.PasiniE.EganT.J.OlliaroP.TaramelliD.MontiD.Standardization of the physicochemical parameters to assess in vitro the beta-hematin inhibitory activity of antimalarial drugsExp. Parasitol.200096249256
# P. berghei DNA = assay: qPCR of blood and liver of treated mice for Plasmodium 18S rRNA gene; format: in vivo, Plasmodium berghei; conditions: mice treated 160 mg/kg/day × 3 days, alive past day 31
# Description: Briefly, genomic DNA was extracted from the blood and liver of experimental animals using the DNeasy blood and tissue kit (Qiagen, Hilden, Germany) according to the manufacturer’s instructions. The primers and corresponding TaqMan (Applied BioSystems. Foster City, CA, USA) probe amplify and detect a highly conserved region of the 18S rRNA gene of the genus Plasmodium. Pure P. berghei gDNA samples were used as positive controls.
# Genomic DNA was extracted from the blood and liver of experimental animals using the DNeasy blood and tissue kit (Qiagen, Hilden, Germany) according to the manufacturer’s instructions. Briefly, mice alive past day 31 with complete parasite clearance were sacrificed. Next, between 300 and 500 μL of blood was removed after heart puncture and the organs were removed, rinsed with dPBS and homogenized. The liver was homogenized using mechanical disruption and then subjected to proteinase K digestion. Approximately 100 μL of sample was used per each spin column for gDNA extraction.
# Briefly, the primers and corresponding TaqMan probe amplify and detect a highly conserved region of the 18S rRNA gene of the genus Plasmodium. The primer and probe sequences were as follows: forward primer Plasmo 1: 5-[…] TCAGA-3; reverse primer Plasmo 2: 5-[…] TCATAA-3; TaqMan probe Plasprobe: 5-FAM-[…] GACTAG-TAMRA-3. […]
# [1] = test system: P. falciparum D6 (CQ susceptible (CQS) strain); parameters: method as in PMID 26640981, PMID 25801154; conditions: previously reported compounds; ref [27],[28]; cited from earlier work
# [2] = test system: P. falciparum W2 (CQ resistant (CQR) strain); parameters: method as in PMID 26640981; conditions: previously reported compounds; ref [27]; cited from earlier work
# [3] = test system: HepG2 (hepatocellular carcinoma) cell line; parameters: method as in PMID 26640981; conditions: previously reported compounds; ref [27]; cited from earlier work
# [4] = test system: P. falciparum D6 (CQ susceptible (CQS) strain); assay: Malaria SYBR Green Fluorescence Assay, D6 strain; format: cell-based; conditions: Plasmodium falciparum; CQ susceptible African D6 clone; read-out: In Vitro Antimalarial Activity (P. falciparum, IC50, nM) D6
# [5] = test system: P. falciparum W2 (CQ resistant (CQR) strain); assay: microbe, parasite or virus in culture; format: cell-based, Plasmodium falciparum
# [6] = test system: P. falciparum TM91C235 (Thailand, multidrug-resistant (MDR) strain); assay: Malaria SYBR Green Fluorescence Assay, TM91C235 strain; format: cell-based; conditions: Plasmodium falciparum, read-out: In Vitro Antimalarial Activity (P. falciparum, IC50, nM) C235
# [7] = test system: HepG2 (hepatocellular carcinoma) cell line; assay: Compound toxicity in HepG2 cell line; format: cell-based, human
# Description: To investigate possible toxicity issues, the synthesized compounds were evaluated in vitro against a human hepatoma cell line (HepG2).
# Synthesized aminoquinolines were screened in vitro against P. falciparum strains: CQ and MFQ susceptible strain D6 (clone of Sierra Leone/UNC isolate), CQ resistant but MFQ susceptible strain W2 (clone of Indochina isolate), and CQ and MFQ resistant strain TM91C235 (clone of South East Asian isolate) using the Malaria SYBR Green Fluorescence Assay. Full method details are given in Supplementary Materials I. Assessment of compound toxicity in a HepG2 (hepatocellular carcinoma) cell line followed the protocol described in Ref. [40].
# [8] = 20 mg/kg/day p.o., days 3–6 postinfection
# [9] = 40 mg/kg/day p.o., days 3–6 postinfection
# [10] = 40 mg/kg/day p.o., days 3–6 postinfection, 40 mg/kg/day
# [11] = 80 mg/kg/day p.o., days 3–6 postinfection
# [12] = 80 mg/kg/day p.o., days 3–6 postinfection, 80 mg/kg/day
# [13] = 160 mg/kg/day p.o., days 3–5 postinfection
structure (smiles),measurement,setting,value
Clc1ccc2c(NCCCCNCc3csc4ccccc34)ccnc2c1 [Compound 1],Parasitemia D18,P. berghei (ANKA); 20 mg/kg/day p.o. days 3–6,6%
same,Parasitemia D21,P. berghei (ANKA); 20 mg/kg/day p.o. days 3–6,27%
same,Parasitemia D25,P. berghei (ANKA); 20 mg/kg/day p.o. days 3–6,63%
same,Parasitemia D28,P. berghei (ANKA); 20 mg/kg/day p.o. days 3–6,66%
same,Cure (4 days therapy),P. berghei (ANKA); 20 mg/kg/day,no cure
same,Parasitemia D7,"P. berghei (ANKA); 40 mg/kg/day p.o. days 3–6, day 7, positive mice",5 mice negative
same,Parasitemia D11,P. berghei (ANKA); 40 mg/kg/day p.o. days 3–6,no detectable parasitemia and 5 mice negative
same,Parasitemia D18,P. berghei (ANKA); 40 mg/kg/day p.o. days 3–6,2.2%
same,Parasitemia D21,P. berghei (ANKA); 40 mg/kg/day p.o. days 3–6,7.3%
same,Parasitemia D25,P. berghei (ANKA); 40 mg/kg/day p.o. days 3–6,37%
same,Parasitemia D28,P. berghei (ANKA); 40 mg/kg/day p.o. days 3–6,53%
same,Parasitemia D7,"P. berghei (ANKA); 80 mg/kg/day p.o. days 3–6, day 7, positive mice",4 mice negative
same,Parasitemia D11,P. berghei (ANKA); 80 mg/kg/day p.o. days 3–6,4 mice negative
same,Parasitemia D18,P. berghei (ANKA); 80 mg/kg/day p.o. days 3–6,2.3%
same,Parasitemia D7,"P. berghei (ANKA); 160 mg/kg/day p.o. days 3–5, day 7",cleared all parasites
same,Parasitemia D31,"P. berghei (ANKA); 160 mg/kg/day p.o. days 3–5, day 31 (end of study)",parasite negative
same,Parasitemia D7–D31,"P. berghei (ANKA); 160 mg/kg/day p.o. days 3–5, days 7–31",5 mice negative
same,Parasite clearance in dose response test,"P. berghei (ANKA); 80, 40 and 20 mg/kg/day p.o. for 4 days, starting day 3 postinfection",did not clear the parasites
same,Cure (4 days therapy),"P. berghei (ANKA); 80 and 40 mg/kg/day, clearance with recrudescence on D11-14",no cure
same,"Mice cured (modified Thompson test, 3 days therapy)","P. berghei (ANKA); P. berghei infected mice, 160 mg/kg/day × 3 days p.o.",5/5
same,"Mean Survival Time (MST, Days)",P. berghei (ANKA); [8],16.8 days
same,Mice Alive on Day 31,P. berghei (ANKA); [8],0/5
same,Mice Dead/Day Died,"P. berghei (ANKA); 20 mg/kg/day p.o., days 3–6 postinfection, 20 mg/kg/day",2/11 and 1/14 and 1/18 and 1/30
same,"Mean Survival Time (MST, Days)",P. berghei (ANKA); [9],19.4 days
same,Mice Alive on Day 31,P. berghei (ANKA); [9],0/5
same,Mice Dead/Day Died,P. berghei (ANKA); [10],1/30 and 1/15 and 1/16 and 2/18
same,"Mean Survival Time (MST, Days)",P. berghei (ANKA); [11],18.2 days
same,Mice Alive on Day 31,P. berghei (ANKA); [11],0/4
same,Mice Dead/Day Died,P. berghei (ANKA); [12],3/18 and 1/19
same,"Mean Survival Time (MST, Days)",P. berghei (ANKA); [13],>31 days
same,Mice Alive on Day 31,P. berghei (ANKA); [13],5/5
same,Mice survived in host toxicity study,healthy mice,5/5
same,IC50 of inhibition of β-hematin formation,β-hematin formation,0.34 molar equivalent
same,P. berghei DNA in blood and tissue samples (qPCR),P. berghei DNA,negative
same,pIC50,[1],8.10
same,pIC50,[2],7.51
same,SI(HepG2/D6),[3],282
Fc1ccc2scc(CNCCCCNc3ccnc4cc(Cl)ccc34)c2c1 [Compound 2],pIC50,[1],8.00
N#Cc1ccc2scc(CNCCCNc3ccnc4cc(Cl)ccc34)c2c1 [Compound 3],pIC50,[1],8.30
N#Cc1ccc(-c2ccc(CNCCCNc3ccnc4cc(Cl)ccc34)s2)cc1 [Compound 4],pIC50,[1],8.70
COc1ccc(-c2ccc(CNCCCNc3ccnc4cc(Cl)ccc34)s2)cc1 [Compound 5],pIC50,[1],8.15
Cc1ccc(-c2ccc(CNCCNc3ccnc4cc(Cl)ccc34)s2)cc1 [Compound 6],pIC50,[1],8.30
CN(CCCCCCCCNc1ccnc2ccccc12)Cc1ccc(-c2ccc(-c3ccc(C#N)cc3)s2)cc1 [Compound 46],IC50,[4],7 nM
same,RI W2/D6 (resistance index),[5]; IC50 W2 / IC50 D6,0.7
same,IC50,"[5]; Plasmodium falciparum, W2, read-out: In Vitro Antimalarial Activity (P. falciparum, IC50, nM) W2",5 nM
same,IC50,[6],13 nM
same,pIC50,"[7]; Homo sapiens, HepG2, hepatocellular carcinoma cells",5.59
same,SI HepG2/D6 (selectivity index),[7]; IC50 HepG2 / IC50 D6,367
same,Parasitemia D25,P. berghei (ANKA); 40 mg/kg/day p.o. days 3–6,43%
same,Parasitemia D14,"P. berghei (ANKA); 80 mg/kg/day p.o. days 3–6, day 14",4.7%
same,Parasitemia D18,P. berghei (ANKA); 80 mg/kg/day p.o. days 3–6,12%
same,Parasitemia D21,P. berghei (ANKA); 80 mg/kg/day p.o. days 3–6,35%
same,Parasitemia D25,P. berghei (ANKA); 80 mg/kg/day p.o. days 3–6,41%
same,One mouse survival until day,P. berghei (ANKA); 80 and 40 mg/kg/day × 4 days (both doses),25 days
same,"Mean Survival Time (MST, Days)",P. berghei (ANKA); [9],15.8 days
same,Mice Alive on Day 31,P. berghei (ANKA); [9],0/5
same,Mice Dead/Day Died,P. berghei (ANKA); [10],1/10 and 2/11 and 1/22 and 1/25
same,"Mean Survival Time (MST, Days)",P. berghei (ANKA); [11],14.4 days
same,Mice Alive on Day 31,P. berghei (ANKA); [11],0/5
same,Mice Dead/Day Died,P. berghei (ANKA); [12],1/7 and 1/12 and 1/13 and 1/14 and 1/26
same,Mice survived in host toxicity study,healthy mice,5
same,Host toxicity (toxic / non-toxic),healthy mice,non-toxic
Clc1ccc2c(NCCCNCc3csc4ccccc34)ccnc2c1 [Compound 53],Host toxicity (toxic / non-toxic),healthy mice,toxic
same,pIC50,[1],8.15
same,pIC50,[2],7.62
same,SI(HepG2/D6),[3],1111
